The target in this assay is T1, α4β1 integrin (Homo sapiens, UniProt P05556+P13612).
T1 construct: Ramos cells fluorescently labeled with calcein; endogenous in cells; host or cells: Ramos cells
Nature of the assay: Inhibition of adhesion of calcein-labeled Ramos cells to CS1 (fibronectin) peptide-conjugated ovalbumin. The format is cell-based. The conditions noted are these: Table 1; for inhibition at 100 µM: Ramos, compound at a concentration of 100 μM, read-out: % A (percent inhibition of cell adhesion); for IC50: dose required to give 50% inhibition, Ramos cell adhesion to CS1-ovalbumin, 30 minutes at 37° C. The essentials:
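Calcein-labelled Ramos cells (2.5×10^5/well) in TBS with 1 mM MgCl2, CaCl2 and MnCl2 adhered to CS1 peptide–ovalbumin coated at 5 μg/ml for 30 min at 37 °C, with or without compound. After washing, bound cells were lysed and read by fluorescence. IC50 is the dose giving 50% inhibition, and % inhibition was measured at 100 μM.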

The structures appear in SMILES notation.

One may read the inhibition as the relative decrease from the control value, in per cent. As a reminder, the IC50 is the concentration that gives 50% inhibition.

T1 sequence (P13612 34-1032): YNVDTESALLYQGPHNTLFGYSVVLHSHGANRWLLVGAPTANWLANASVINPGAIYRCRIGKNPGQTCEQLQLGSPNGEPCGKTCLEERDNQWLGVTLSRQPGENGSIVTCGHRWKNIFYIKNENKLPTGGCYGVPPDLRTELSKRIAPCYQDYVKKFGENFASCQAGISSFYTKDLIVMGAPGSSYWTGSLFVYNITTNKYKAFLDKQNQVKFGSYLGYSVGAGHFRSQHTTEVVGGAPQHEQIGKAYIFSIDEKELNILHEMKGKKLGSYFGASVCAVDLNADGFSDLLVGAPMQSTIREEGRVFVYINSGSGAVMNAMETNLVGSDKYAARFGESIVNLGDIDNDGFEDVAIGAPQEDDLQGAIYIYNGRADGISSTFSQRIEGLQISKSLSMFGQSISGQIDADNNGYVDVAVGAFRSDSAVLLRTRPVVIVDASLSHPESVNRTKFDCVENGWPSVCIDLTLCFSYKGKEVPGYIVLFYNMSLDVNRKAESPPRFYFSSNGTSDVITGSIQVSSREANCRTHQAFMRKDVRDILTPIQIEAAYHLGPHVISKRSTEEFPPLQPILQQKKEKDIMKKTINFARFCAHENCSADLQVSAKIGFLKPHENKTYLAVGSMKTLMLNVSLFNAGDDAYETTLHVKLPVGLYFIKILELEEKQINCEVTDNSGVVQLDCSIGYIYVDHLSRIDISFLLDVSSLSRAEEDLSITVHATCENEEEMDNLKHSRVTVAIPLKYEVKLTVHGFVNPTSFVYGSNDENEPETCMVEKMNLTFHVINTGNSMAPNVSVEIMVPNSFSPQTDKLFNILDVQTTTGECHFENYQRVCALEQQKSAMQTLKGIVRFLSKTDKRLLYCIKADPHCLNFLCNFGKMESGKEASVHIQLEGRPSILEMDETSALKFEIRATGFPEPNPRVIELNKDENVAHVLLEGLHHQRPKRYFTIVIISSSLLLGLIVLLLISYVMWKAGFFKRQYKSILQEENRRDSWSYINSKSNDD
T1 sequence (P05556 21-798): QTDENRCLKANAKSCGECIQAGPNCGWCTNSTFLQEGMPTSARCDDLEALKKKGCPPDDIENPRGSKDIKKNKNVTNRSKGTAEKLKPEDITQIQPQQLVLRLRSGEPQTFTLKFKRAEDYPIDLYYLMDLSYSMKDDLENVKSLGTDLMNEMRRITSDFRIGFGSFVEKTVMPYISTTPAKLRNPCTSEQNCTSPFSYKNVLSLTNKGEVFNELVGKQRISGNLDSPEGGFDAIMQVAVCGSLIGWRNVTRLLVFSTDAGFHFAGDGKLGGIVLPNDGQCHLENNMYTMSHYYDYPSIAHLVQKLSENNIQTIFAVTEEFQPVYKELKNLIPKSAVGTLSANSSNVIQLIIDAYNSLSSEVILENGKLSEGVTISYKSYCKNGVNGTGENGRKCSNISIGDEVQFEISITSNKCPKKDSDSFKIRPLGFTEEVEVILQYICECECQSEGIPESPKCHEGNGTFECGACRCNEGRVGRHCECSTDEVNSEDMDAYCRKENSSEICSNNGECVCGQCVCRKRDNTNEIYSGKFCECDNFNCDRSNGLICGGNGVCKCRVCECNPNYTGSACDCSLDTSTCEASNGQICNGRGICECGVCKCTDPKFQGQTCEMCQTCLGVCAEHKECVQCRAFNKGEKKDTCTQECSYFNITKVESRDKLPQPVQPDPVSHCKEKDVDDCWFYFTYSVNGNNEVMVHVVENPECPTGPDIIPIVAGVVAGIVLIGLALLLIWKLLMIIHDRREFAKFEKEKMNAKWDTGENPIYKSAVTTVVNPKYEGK

As for `COC(=O)NCCCC[C@H](NC(=O)N[C@@H](CC(=O)O)c1ccc2c(c1)OCO2)C(=O)NCc1ccc(N)cc1` [(9S,13S)-9-{[(4-aminobenzyl)amino]carbonyl}-13-(1,3-benzodioxol-5-yl)-3,11-dioxo-2-oxa-4,10,12-triazapentadecan-15-oic acid], the inhibition at 100 µM is 100% and the IC50 is 300 nM.
Consider `O=C(O)C[C@H](NC(=O)N[C@@H](CCCCNC(=O)OCc1ccccc1)C(=O)NCCc1ccccn1)c1ccc2c(c1)OCO2` [(9S,13S)-13-(1,3-benzodioxol-5-yl)-3,11-dioxo-1-phenyl-9-({[2-(2-pyridinyl)ethyl]amino}carbonyl)-2-oxa-4,10,12-triazapentadecan-15-oic acid], for which the inhibition at 100 µM is 100% and the IC50 is 2000 nM.
The corresponding values for `Cc1ccccc1NC(=O)Nc1ccc(CNC(=O)[C@H](CCCCNC(=O)OCc2ccccc2)NC(=O)N[C@@H](CC(=O)O)c2ccc3c(c2)OCO3)cc1` [(9S,13S)-13-(1,3-benzodioxol-5-yl)-3,11-dioxo-1-phenyl-9-[({4-[(2-toluidinocarbonyl)amino]benzyl}amino)carbonyl]-2-oxa-4,10,12-triazapentadecan-15-oic acid] are 100% and 0.3 nM.
Consider `O=C(O)C[C@H](NC(=O)N[C@@H](CCCCNC(=O)OCc1ccccc1)C(=O)NCCCN1CCCC1=O)c1ccc2c(c1)OCO2` [(9S,13S)-13-(1,3-benzodioxol-5-yl)-3,11-dioxo-9-({[3-(2-oxo-1-pyrrolidinyl)propyl]amino}carbonyl)-1-phenyl-2-oxa-4,10,12-triazapentadecan-15-oic acid], for which the inhibition at 100 µM is 100% and the IC50 was 3000 nM.
With `COC(=O)NCCCC[C@@H](CSc1ccccc1)NC(=O)N[C@@H](CC(=O)O)c1ccc2c(c1)OCO2` [(9S,13S)-13-(1,3-benzodioxol-5-yl)-3,11-dioxo-9-[(phenylsulfanyl)methyl]-2-oxa-4,10,12-triazapentadecan-15-oic acid], the inhibition at 100 µM was 100% and the IC50 was 400 nM.
For `COC(=O)NCCCC[C@@H](CS(=O)(=O)c1ccccc1)NC(=O)N[C@@H](CC(=O)O)c1ccc2c(c1)OCO2` [(9S,13S)-13-(1,3-benzodioxol-5-yl)-3,11-dioxo-9-[(phenylsulfonyl)methyl]-2-oxa-4,10,12-triazapentadecan-15-oic acid], in that order: 20% and above 100000 nM.
The corresponding values for `COC(=O)NCCCC[C@H](NC(=O)N[C@@H](CC(=O)O)c1ccc2c(c1)OCO2)C(=O)NCC1CCNCC1` [(9S,13S)-13-(1,3-benzodioxol-5-yl)-3,11-dioxo-9-{[(4-piperidinylmethyl)amino]carbonyl}-2-oxa-4,10,12-triazapentadecan-15-oic acid] are 97% and 5000 nM.
Consider `Cc1ccccc1CNc1ccc(CNC(=O)[C@H](CCCCNC(=O)OCc2ccccc2)NC(=O)N[C@@H](CC(=O)O)c2ccc3c(c2)OCO3)cc1` [(9S,13S)-13-(1,3-benzodioxol-5-yl)-9-[({4-[(2-methylbenzyl)amino]benzyl}amino)carbonyl]-3,11-dioxo-1-phenyl-2-oxa-4,10,12-triazapentadecan-15-oic acid], for which the inhibition at 100 µM is 100% and the IC50 is 0.4 nM.
With `COC(=O)NCCCC[C@H](NC(=O)N[C@@H](CC(=O)O)c1ccc2c(c1)OCO2)C(=O)NCc1ccc(N(Cc2ccccc2C)Cc2ccccc2C)cc1` [(9S,13S)-13-(1,3-benzodioxol-5-yl)-9-[({4-bis(2-methylbenzyl)amino]benzyl}amino)carbonyl]-3,11-dioxo-2-oxa-4,10,12-triazapentadecan-15-oic acid], the inhibition at 100 µM is 95% and the IC50 is 1000 nM.
For `COC(=O)NCCCC[C@H](NC(=O)N[C@@H](CC(=O)O)c1ccc2c(c1)OCO2)C(=O)NCc1ccc(OC)c(O)c1` [(9S,13S)-13-(1,3-benzodioxol-5-yl)-9-{[(3-hydroxy-4-methoxybenzyl)amino]carbonyl}-3,11-dioxo-2-oxa-4,10,12-triazapentadecan-15-oic acid], in that order: 100% and 200 nM.

Values taken from patent US6262084A, “Compounds that inhibit the binding of integrins to their receptors” (Texas Biotechnology Corporation, priority 1999, dated 2001).
